Measurements reported in US11865126B2, “Method for treating anxiety disorders, headache disorders, and eating disorders with psilocybin” (priority 2019, dated 2024).

System: healthy subjects
Assay: Life Changes Inventory (LCI)
Format: in vivo, human
Source text: In some embodiments, the Life Changes Inventory (LCI) questionnaire is utilized to evaluate the safety and/or efficacy of psilocybin. The LCI is designed as a questionnaire to investigate those variables present in the day-to-day experience of adults that might relate either to stability or decline of intellectual ability.
The following list of outcome measures are non-exhaustive. • a. The short-term change from Baseline (Day −1 [Visit 2]) to Day 7 (Visit 5) in cognitive measures of attention, spatial and working memory and executive function was measured by a composite score of the CANTAB Panel (Spatial Working Memory [SWM], Rapid Visual Information Processing [RVP], Paired Associates Learning [PAL]). • b. The short-term change from Baseline (Day −1 [Visit 2]) to Day 7 (Visit 5) in Social Cognition Panel scales (Pictorial Empathy Test [PET], Reading the Mind in the Eyes Test [RMET], Toronto Empathy Questionnaire [TEQ], Social Value Orientation [SVO], Scale of Social Responsibility [SSR]). • c. The change from Baseline (Day −1 [Visit 2]) to Day 28 (Visit 6) in cognitive measures of attention, spatial and working memory and executive function as measured by a composite score of the CANTAB Panel (SWM, RVP, PAL). • d. The long-term change from Baseline (Day −1 [Visit 2]) to Day 84 (Visit 7) in Social Cognition Panel scales (PET, RMET, TEQ, SVO, SSR). • e. Dose-related differences between cognitive effects of psilocybin at Baseline (Day −1 [Visit 2]), Day 7 (Visit 5) and Day 28 (Visit 6), as measured by a composite score of the CANTAB Panel (SWM, RVP, PAL). • f. Dose-related differences between psychological effects of psilocybin at Baseline (Day −1 [Visit 2]), Day 7 (Visit 5) and Day 84 (Visit 7), as measured by Social Cognition Panel scales (PET, RMET, TEQ, SVO, SSR). • g. Differences in cognitive effects of psilocybin between psilocybin-naïve and experienced subjects at Baseline (Day −1 [Visit 2]), Day 7 (Visit 5) and Day 28 (Visit 6), as measured by a composite score of the CANTAB Panel (SWM, RVP, PAL). • h. Differences in Positive and Negative Affect Schedule (PANAS) after study drug administration on Day 0 (Visit 3). • i. Differences between psilocybin and placebo in the Emotion Recognition Test (ERT), Intra-Extra Dimensional Set Shift (IED), One Touch Stockings (OTS), Verbal Fluency and Digit Span Forward at Day 7 (Visit 5). • j. A composite score of the CANTAB Panel, including the following tests: • i. Spatial Working Memory (SWM) (performed at Visit 2, Visit 5, and Visit 6). • ii. Rapid Visual Information Processing (RVP) (performed at Visit 2, Visit 5, and Visit 6). • iii. Paired Associates Learning (PAL) (performed at Visit 2, Visit 5, and Visit 6). • k. Cognitive Flexibility Panel • i. Emotion Recognition Task (ERT) (performed at Visit 5). • ii. Intra-Extra Dimensional Set Shift (IED) (performed at Visit 5). • iii. One Touch Stockings (OTS) (performed at Visit 5). • iv. Verbal Fluency (performed at Visit 5). • v. Digit Span Forward (performed at Visit 5). • l. Five Dimension Altered States of Consciousness questionnaire (5D-ASC) (performed at Visit 3). • m. PANAS (performed at Visit 2 and Visit 3). • n. NEO-Five Factor Inventory (NEO-FFI) (performed at Visit 2, Visit 5, and Visit 7). • o. Symptom Checklist-90 item (SCL-90) (performed at Visit 2, Visit 5, and Visit 7). • p. Life Changes Inventory (LCI): The LCI measures changes in attitudes and values after near-death experiences often used to evaluate personal transformation following spiritually oriented experiences and practices. (performed at Visit 5 and Visit 7). • q. Social Cognition Panel scales • i. Pictorial Empathy Test (PET) (performed at Visit 2, Visit 5, and Visit 7). • ii. Reading the Mind in the Eyes Test (RMET) (performed at Visit 2, Visit 5, and Visit 7). • iii. Social Value Orientation (SVO) (performed at Visit 2, Visit 5, and Visit 7). • iv. Toronto Empathy Questionnaire (TEQ) (performed at Visit 2, Visit 5, and Visit 7). • v. […]

CN(C)CCc1c[nH]c2cccc(OP(=O)(O)O)c12 [psilocybin]
LCI Self-Acceptance Scores (LS mean) (10 mg psilocybin, Day 7 (Example 19)): 0.8 | LCI Self-Acceptance Scores (LS mean) (10 mg psilocybin, Day 84 (Example 19)): 0.6 | LCI Self-Acceptance Scores (LS mean) (25 mg psilocybin, Day 7 (Example 19)): 0.6 | LCI Self-Acceptance Scores (LS mean) (25 mg psilocybin, Day 84 (Example 19)): 0.6 | LCI - absolute change, difference Psilocybin 10 mg - Placebo (Day 7): 0.4 | LCI - absolute change, difference Psilocybin 25 mg - Placebo (Day 7): 0.3 | LCI - absolute change, difference Psilocybin (25 mg-10 mg) (Day 7): −0.1 | LCI appreciation for life, difference Psilocybin 10 mg - Placebo (Day 7): 0.6 | LCI appreciation for life, difference Psilocybin 25 mg - Placebo (Day 7): 0.5 | LCI appreciation for life, difference Psilocybin (25 mg-10 mg) (Day 7): −0.2 | LCI appreciation of death, difference Psilocybin 10 mg - Placebo (Day 7): 0.1 | LCI appreciation of death, difference Psilocybin 25 mg - Placebo (Day 7): 0.1 | LCI appreciation of death, difference Psilocybin (25 mg-10 mg) (Day 7): −0.0 | LCI concern for others, difference Psilocybin 10 mg - Placebo (Day 7): 0.4 | LCI concern for others, difference Psilocybin 25 mg - Placebo (Day 7): 0.4 | LCI concern for others, difference Psilocybin (25 mg-10 mg) (Day 7): 0.0 | LCI concern for worldly achievement, difference Psilocybin 10 mg - Placebo (Day 7): −0.2 | LCI concern for worldly achievement, difference Psilocybin 25 mg - Placebo (Day 7): −0.1 | LCI concern for worldly achievement, difference Psilocybin (25 mg-10 mg) (Day 7): 0.1 | LCI concern social, difference Psilocybin 10 mg - Placebo (Day 7): 0.1 | LCI concern social, difference Psilocybin 25 mg - Placebo (Day 7): 0.2 | LCI concern social, difference Psilocybin (25 mg-10 mg) (Day 7): 0.1 | LCI quest for meaning, difference Psilocybin 10 mg - Placebo (Day 7): 0.4 | LCI quest for meaning, difference Psilocybin 25 mg - Placebo (Day 7): 0.4 | LCI quest for meaning, difference Psilocybin (25 mg-10 mg) (Day 7): 0.0 | LCI religiousness, difference Psilocybin 10 mg - Placebo (Day 7): −0.1 | LCI religiousness, difference Psilocybin 25 mg - Placebo (Day 7): 0.0 | LCI religiousness, difference Psilocybin (25 mg-10 mg) (Day 7): 0.1 | LCI self-acceptance, difference Psilocybin 10 mg - Placebo (Day 7): 0.7 | LCI self-acceptance, difference Psilocybin 25 mg - Placebo (Day 7): 0.5 | LCI self-acceptance, difference Psilocybin (25 mg-10 mg) (Day 7): −0.1 | LCI spirituality, difference Psilocybin 10 mg - Placebo (Day 7): 0.3 | LCI spirituality, difference Psilocybin 25 mg - Placebo (Day 7): 0.2 | LCI spirituality, difference Psilocybin (25 mg-10 mg) (Day 7): −0.1 | LCI - absolute change, difference Psilocybin 10 mg - Placebo (Day 84): 0.4 | LCI - absolute change, difference Psilocybin 25 mg - Placebo (Day 84): 0.4 | LCI - absolute change, difference Psilocybin (25 mg-10 mg) (Day 84): −0.0 | LCI appreciation for life, difference Psilocybin 10 mg - Placebo (Day 84): 0.6 | LCI appreciation for life, difference Psilocybin 25 mg - Placebo (Day 84): 0.5 | LCI appreciation for life, difference Psilocybin (25 mg-10 mg) (Day 84): −0.1 | LCI appreciation of death, difference Psilocybin 10 mg - Placebo (Day 84): 0.2 | LCI appreciation of death, difference Psilocybin 25 mg - Placebo (Day 84): 0.2 | LCI appreciation of death, difference Psilocybin (25 mg-10 mg) (Day 84): 0.0 | LCI concern for others, difference Psilocybin 10 mg - Placebo (Day 84): 0.4 | LCI concern for others, difference Psilocybin 25 mg - Placebo (Day 84): 0.5 | LCI concern for others, difference Psilocybin (25 mg-10 mg) (Day 84): 0.1 | LCI concern for worldly achievement, difference Psilocybin 10 mg - Placebo (Day 84): −0.2 | LCI concern for worldly achievement, difference Psilocybin 25 mg - Placebo (Day 84): −0.1 | LCI concern for worldly achievement, difference Psilocybin (25 mg-10 mg) (Day 84): 0.1 | LCI concern social, difference Psilocybin 10 mg - Placebo (Day 84): 0.1 | LCI concern social, difference Psilocybin 25 mg - Placebo (Day 84): 0.1 | LCI concern social, difference Psilocybin (25 mg-10 mg) (Day 84): 0.0 | LCI quest for meaning, difference Psilocybin 10 mg - Placebo (Day 84): 0.4 | LCI quest for meaning, difference Psilocybin 25 mg - Placebo (Day 84): 0.4 | LCI quest for meaning, difference Psilocybin (25 mg-10 mg) (Day 84): −0.0 | LCI religiousness, difference Psilocybin 10 mg - Placebo (Day 84): −0.0 | LCI religiousness, difference Psilocybin 25 mg - Placebo (Day 84): 0.0 | LCI religiousness, difference Psilocybin (25 mg-10 mg) (Day 84): 0.1 | LCI self-acceptance, difference Psilocybin 10 mg - Placebo (Day 84): 0.5 | LCI self-acceptance, difference Psilocybin 25 mg - Placebo (Day 84): 0.5 | LCI self-acceptance, difference Psilocybin (25 mg-10 mg) (Day 84): 0.0 | LCI spirituality, difference Psilocybin 10 mg - Placebo (Day 84): 0.4 | LCI spirituality, difference Psilocybin 25 mg - Placebo (Day 84): 0.4 | LCI spirituality, difference Psilocybin (25 mg-10 mg) (Day 84): −0.0
